Laboratory results: BindingDB's records for doi:10.1016/j.bmcl.2007.06.023 (Merck Frosst Centre For Therapeutic Research, 2007)

Key:
Assay in all cases: Enzyme Inhibition Assay
Cathepsin K = biological target: T1, Cathepsin K (Oryctolagus cuniculus, UniProt P43236)
T1 sequence (P43236 whole entry): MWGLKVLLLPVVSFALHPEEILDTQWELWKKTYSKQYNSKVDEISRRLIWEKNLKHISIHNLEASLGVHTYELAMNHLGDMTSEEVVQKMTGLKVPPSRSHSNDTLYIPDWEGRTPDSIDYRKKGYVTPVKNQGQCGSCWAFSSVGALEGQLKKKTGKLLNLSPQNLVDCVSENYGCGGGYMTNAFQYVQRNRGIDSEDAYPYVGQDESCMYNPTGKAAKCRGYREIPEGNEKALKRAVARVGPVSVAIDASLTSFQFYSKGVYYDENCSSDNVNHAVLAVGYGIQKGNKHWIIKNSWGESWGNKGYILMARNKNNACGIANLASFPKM
Protocol: (§1) Prior to the addition of substrate, different concentrations of the inhibitor ranging from 100 uM to 0.2 nM were preincubated for 15 min with enzyme to allow the establishment of the enzyme-inhibitor complex. The proteolytic cleavage of N-acyl aminocoumarins by cathepsins was conducted in 96-well plate format and the plate read using a Spectramax (Molecular Devices) plate reader. The excitation wavelength was 355 nm and the emission wavelength was 460 nm for peptidyl-AMC substrates. The percent inhibition of the reaction was calculated from a control reaction containing only vehicle. IC50 curves were generated by fitting percent inhibition values to a four parameter logistic model (SOFTMAX PRO, Molecular Devices).

Cathepsin S = Cathepsin S (Homo sapiens, UniProt P25774); conditions: pH 6.5; 22 °C
Chain of Cathepsin S (P25774 whole entry): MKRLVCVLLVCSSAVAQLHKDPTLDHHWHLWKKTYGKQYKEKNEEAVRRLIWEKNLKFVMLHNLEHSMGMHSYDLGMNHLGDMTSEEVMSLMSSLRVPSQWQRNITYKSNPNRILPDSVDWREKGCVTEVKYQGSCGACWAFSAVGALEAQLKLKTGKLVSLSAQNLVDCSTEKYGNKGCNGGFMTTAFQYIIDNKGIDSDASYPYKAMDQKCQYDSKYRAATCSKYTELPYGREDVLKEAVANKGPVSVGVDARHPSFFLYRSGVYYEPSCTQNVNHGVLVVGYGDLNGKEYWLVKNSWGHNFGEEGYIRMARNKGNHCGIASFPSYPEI
Protocol: as §1

Procathepsin L = Procathepsin L (Homo sapiens, UniProt P07711)
Chain of Procathepsin L (P07711 whole entry): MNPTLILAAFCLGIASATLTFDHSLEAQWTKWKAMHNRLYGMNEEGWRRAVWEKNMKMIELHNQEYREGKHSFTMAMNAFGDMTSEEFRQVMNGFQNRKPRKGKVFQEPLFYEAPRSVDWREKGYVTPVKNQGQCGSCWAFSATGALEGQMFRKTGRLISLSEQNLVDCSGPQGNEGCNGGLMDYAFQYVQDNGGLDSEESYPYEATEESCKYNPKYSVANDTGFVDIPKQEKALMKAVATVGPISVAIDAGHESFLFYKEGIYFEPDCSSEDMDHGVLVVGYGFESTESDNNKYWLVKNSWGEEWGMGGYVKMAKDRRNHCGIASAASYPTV
Protocol: as §1

| SMILES | IC50 (Cathepsin K) [nM] | IC50 (Cathepsin S) [nM] | IC50 (Procathepsin L) [nM] |
| --- | --- | --- | --- |
| CC(C)C[C@@H](NC(=O)N1CCOCC1)C(=O)N[C@@H](C=CS(=O)(=O)c1ccccc1)CCc1ccccc1 | 6.2 | 1.2 | – |
| CC(C)(c1ccc(F)cc1)S(=O)(=O)C[C@H](N[C@@H](c1ccc(F)cc1)C(F)(F)F)C(=O)NC1(C#N)CC1 [(2R)-N-(1-cyanocyclopropyl)-3-{[2-(4-fluorophenyl)propane-2-]sulfonyl}-2-{[(1S)-2,2,2-trifluoro-1-(4-fluorophenyl)ethyl]amino}propanamide] | > 10000 | – | – |
| N#CC1(NC(=O)[C@H](CS(=O)(=O)Cc2cccc(F)c2F)N[C@@H](c2ccc(F)cc2)C(F)(F)F)CC1 [(2R)-N-(1-cyanocyclopropyl)-3-{[(2,3-difluorophenyl)methane]sulfonyl}-2-{[(1S)-2,2,2-trifluoro-1-(4-fluorophenyl)ethyl]amino}propanamide] | > 10000 | – | – |
| N#CC1(NC(=O)[C@H](CS(=O)(=O)Cc2cccc(F)c2F)N[C@@H](c2ccccc2)C(F)(F)F)CC1 [(2R)-N-(1-cyanocyclopropyl)-3-{[(2,3-difluorophenyl)methane]sulfonyl}-2-{[(1S)-2,2,2-trifluoro-1-phenylethyl]amino}propanamide] | > 10000 | – | – |

Results, then the compound that gave them:

| IC50 (Cathepsin K) [nM] | IC50 (Cathepsin S) [nM] | IC50 (Procathepsin L) [nM] | SMILES |
| --- | --- | --- | --- |
| > 10000 | 0.7 | 249 | N#CC1(NC(=O)[C@H](CS(=O)(=O)Cc2c(Cl)cccc2Cl)N[C@@H](c2ccc(F)cc2)C(F)(F)F)CC1 [(2R)-N-(1-cyanocyclopropyl)-3-{[(2,6-dichlorophenyl)methane]sulfonyl}-2-{[(1S)-2,2,2-trifluoro-1-(4-fluorophenyl)ethyl]amino}propanamide] |
| > 10000 | – | – | N#CC1(NC(=O)[C@H](CS(=O)(=O)Cc2ccc(F)cc2)N[C@@H](c2ccccc2)C(F)(F)F)CC1 [(2R)-N-(1-cyanocyclopropyl)-3-{[(4-fluorophenyl)methane]sulfonyl}-2-{[(1S)-2,2,2-trifluoro-1-phenylethyl]amino}propanamide] |
| > 10000 | – | – | N#CC1(NC(=O)[C@H](CS(=O)(=O)Cc2ccccc2-c2ccccc2)N[C@@H](c2ccc(F)cc2)C(F)(F)F)CC1 [(2R)-N-(1-cyanocyclopropyl)-3-{[(2-phenylphenyl)methane]sulfonyl}-2-{[(1S)-2,2,2-trifluoro-1-(4-fluorophenyl)ethyl]amino}propanamide] |
